Data: the supplement of paper PMC10307832

Key:
Assay in all cases: relative viability (nuclei count vs DMSO), 5 days (fraction); higher = more cells survive
[1] = compound: COc1cc2nccc(Oc3ccc(NC(=O)C4(C(=O)Nc5ccc(F)cc5)CC4)cc3)c2cc1OC [Cabozantinib] + N=C(N)NC(=N)NCCc1ccccc1 [Phenformin] (partner 250 µM)
How it was run: (§1)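 Relative viability was taken as the ratio of nuclei in treated wells to nuclei in vehicle wells. Lung cancer cell lines in 1536-well plates received compounds by pin tool one day after seeding, either one drug alone or a fixed anchor-drug dose plus five library-drug doses (not always all listed) in √10 steps. Nuclei were counted on 4× images after 5 days of treatment, and values are medians of duplicate plates.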

Cabozantinib + AZD7762 = compound: COc1cc2nccc(Oc3ccc(NC(=O)C4(C(=O)Nc5ccc(F)cc5)CC4)cc3)c2cc1OC [Cabozantinib] + NC(=O)Nc1cc(-c2cccc(F)c2)sc1C(=O)N[C@H]1CCCNC1 [AZD7762] (partner 0.2 µM)
How it was run: as §1

Cabozantinib + Dasatinib = compound: COc1cc2nccc(Oc3ccc(NC(=O)C4(C(=O)Nc5ccc(F)cc5)CC4)cc3)c2cc1OC [Cabozantinib] + Cc1nc(Nc2ncc(C(=O)Nc3c(C)cccc3Cl)s2)cc(N2CCN(CCO)CC2)n1 [Dasatinib] (partner 0.075 µM)
How it was run: as §1

Zosuquidar + Decitabine = compound: O[C@@H](COc1cccc2ncccc12)CN1CCN([C@@H]2c3ccccc3[C@@H]3[C@H](c4ccccc42)C3(F)F)CC1 [Zosuquidar] + Nc1ncn([C@H]2C[C@H](O)[C@@H](CO)O2)c(=O)n1 [Decitabine] (partner 2 µM)
How it was run: as §1

Cell Line	relative viability ([1]; first compound 0.02 µM)	relative viability ([1]; first compound 0.06325 µM)	relative viability ([1]; first compound 0.2 µM)	relative viability ([1]; first compound 0.6325 µM)	relative viability ([1]; first compound 2 µM)	relative viability (Cabozantinib + AZD7762; first compound 0.02 µM)	relative viability (Cabozantinib + AZD7762; first compound 0.06325 µM)	relative viability (Cabozantinib + AZD7762; first compound 0.2 µM)	relative viability (Cabozantinib + AZD7762; first compound 0.6325 µM)	relative viability (Cabozantinib + AZD7762; first compound 2 µM)	relative viability (Cabozantinib + Dasatinib; first compound 0.02 µM)	relative viability (Cabozantinib + Dasatinib; first compound 0.06325 µM)	relative viability (Cabozantinib + Dasatinib; first compound 0.2 µM)	relative viability (Cabozantinib + Dasatinib; first compound 0.6325 µM)	relative viability (Cabozantinib + Dasatinib; first compound 2 µM)	relative viability (Zosuquidar + Decitabine; first compound 0.01 µM)	relative viability (Zosuquidar + Decitabine; first compound 0.03162 µM)	relative viability (Zosuquidar + Decitabine; first compound 0.1 µM)	relative viability (Zosuquidar + Decitabine; first compound 0.3162 µM)	relative viability (Zosuquidar + Decitabine; first compound 1 µM)
LXF-289	0.524	0.544	0.5	0.508	0.493	1.15	1.07	1.13	1.09	1.06	0.126	0.206	0.155	0.117	0.0913	0.357	0.364	0.367	0.418	0.403
NCI-H23	–	0.938	0.8	0.825	0.814	–	0.312	0.248	0.261	0.241	–	1.17	0.808	0.936	0.598	0.29	–	0.306	0.302	0.324
NCI-H322M	0.779	0.922	0.589	0.803	0.816	0.574	0.716	0.543	0.725	0.612	0.259	0.271	0.238	0.264	0.26	0.598	0.548	0.666	0.632	0.625
NCI-H358	0.283	0.317	0.231	0.296	0.337	0.457	0.715	0.499	0.544	0.62	0.15	0.194	0.12	0.197	0.19	0.23	0.194	0.214	0.255	0.19
NCI-H441	0.556	0.775	1.02	0.883	0.902	1.64	1.43	1.1	1.44	0.826	0.431	0.704	0.458	0.582	0.51	0.234	0.249	0.235	0.248	0.251
NCI-H460	0.535	0.563	0.576	0.512	0.508	0.633	0.801	0.68	0.623	0.63	0.321	0.607	0.496	0.493	0.565	0.459	0.448	0.335	0.55	0.44
NCI-H522	0.692	0.657	0.633	0.637	0.716	0.704	0.767	0.819	0.999	0.865	0.726	0.898	0.93	0.846	1.04	0.681	0.624	0.643	0.618	0.657
NCI-H596	0.728	0.883	0.778	0.796	0.664	1.12	1.35	1.15	1.07	1.09	0.509	0.637	0.558	0.582	0.544	1.02	0.961	1.03	1.13	0.879
NCI-H647	0.488	0.596	0.541	0.49	0.322	0.44	0.77	0.427	0.594	0.4	0.281	0.17	0.201	0.147	0.136	0.396	0.444	0.429	0.378	0.318
NCI-H650	–	0.497	0.454	0.465	0.404	0.959	1.24	0.938	1.04	0.982	–	0.504	0.452	0.49	0.445	0.292	0.369	0.387	0.398	0.376
NCI-H727	0.447	0.617	0.477	0.495	0.528	0.509	0.796	0.661	0.539	0.651	0.298	0.455	0.284	0.348	0.298	0.823	0.906	–	0.794	0.887
NCI-H838	0.551	0.592	0.542	0.563	0.41	1	0.74	0.908	0.93	0.866	0.251	0.309	0.312	0.338	0.281	0.488	0.49	0.486	0.496	0.502
NCI-H1355	0.435	0.516	0.475	0.436	0.424	0.703	0.919	0.83	0.754	0.746	0.563	0.78	0.73	0.678	0.734	0.388	0.393	0.355	0.382	0.401
NCI-H1395	0.465	0.477	0.472	0.438	0.448	0.367	0.445	0.436	0.42	0.401	0.363	0.473	0.423	0.458	0.37	0.707	0.765	–	0.765	0.773
NCI-H1437	0.301	0.374	0.284	0.326	0.322	1.16	1.18	1.19	1.21	1.04	0.263	0.617	0.371	0.377	0.309	0.567	0.561	0.644	0.56	0.592
NCI-H1651	0.316	0.329	0.316	0.298	0.292	0.391	0.544	0.444	0.438	0.39	0.336	0.39	0.327	0.335	0.396	0.644	0.685	0.483	0.617	0.588
NCI-H1666	0.568	0.559	0.607	0.544	0.601	0.712	1.02	0.763	0.921	0.814	0.727	0.899	0.766	0.839	0.795	0.766	0.788	0.671	0.789	0.678

Cell Line	relative viability ([1]; first compound 0.02 µM)	relative viability ([1]; first compound 0.06325 µM)	relative viability ([1]; first compound 0.2 µM)	relative viability ([1]; first compound 0.6325 µM)	relative viability ([1]; first compound 2 µM)	relative viability (Cabozantinib + AZD7762; first compound 0.02 µM)	relative viability (Cabozantinib + AZD7762; first compound 0.06325 µM)	relative viability (Cabozantinib + AZD7762; first compound 0.2 µM)	relative viability (Cabozantinib + AZD7762; first compound 0.6325 µM)	relative viability (Cabozantinib + AZD7762; first compound 2 µM)	relative viability (Cabozantinib + Dasatinib; first compound 0.02 µM)	relative viability (Cabozantinib + Dasatinib; first compound 0.06325 µM)	relative viability (Cabozantinib + Dasatinib; first compound 0.2 µM)	relative viability (Cabozantinib + Dasatinib; first compound 0.6325 µM)	relative viability (Cabozantinib + Dasatinib; first compound 2 µM)	relative viability (Zosuquidar + Decitabine; first compound 0.01 µM)	relative viability (Zosuquidar + Decitabine; first compound 0.03162 µM)	relative viability (Zosuquidar + Decitabine; first compound 0.1 µM)	relative viability (Zosuquidar + Decitabine; first compound 0.3162 µM)	relative viability (Zosuquidar + Decitabine; first compound 1 µM)
NCI-H1734	0.368	0.395	0.403	0.406	0.355	0.522	0.655	0.563	0.575	0.544	0.389	0.452	0.467	0.402	0.34	0.522	0.537	0.525	0.456	0.565
NCI-H1755	0.611	0.624	0.57	0.644	0.561	0.449	0.494	0.471	0.39	0.547	0.299	0.479	0.396	0.313	0.239	0.672	0.663	0.716	0.728	0.708
NCI-H1792	–	0.374	0.37	0.254	0.251	–	1.05	0.684	0.506	0.335	–	0.878	0.77	0.727	0.644	0.545	0.532	0.603	0.584	0.556
NCI-H1793	0.347	0.441	0.303	0.326	0.296	0.413	0.625	–	0.579	0.17	0.436	0.519	0.343	0.336	0.378	0.536	–	–	0.648	0.488
NCI-H1915	0.364	0.389	0.374	0.373	0.362	0.769	0.721	0.725	0.804	0.678	0.32	0.316	0.294	0.352	0.322	0.278	0.252	0.279	0.288	0.269
NCI-H1944	0.17	0.213	0.193	0.208	0.204	0.492	0.552	0.598	0.55	0.69	0.183	0.233	0.206	0.221	0.216	0.365	0.454	0.469	0.453	0.439
NCI-H1975	0.408	0.462	0.386	0.423	0.399	0.673	0.828	0.683	0.678	0.682	0.285	0.365	0.344	0.36	0.326	0.4	0.402	0.423	0.411	0.547
NCI-H1993	0.448	0.521	0.511	0.473	0.476	0.589	0.556	0.513	0.461	0.56	0.513	0.488	0.49	0.498	0.523	0.609	0.615	–	0.583	0.546
NCI-H2085	0.749	0.752	0.595	0.695	0.616	1.08	1.06	0.766	0.768	0.727	0.285	0.268	0.244	0.218	0.216	0.556	0.586	–	0.653	0.55
NCI-H2087	0.422	0.455	0.471	0.429	0.456	1.19	1.44	1.18	1.35	1.35	0.694	0.957	0.823	0.78	0.557	0.262	0.3	0.305	0.206	0.33
NCI-H2126	0.443	0.555	0.539	0.544	0.586	0.901	1.03	0.941	0.988	1.07	0.497	0.625	0.624	0.634	0.573	0.571	0.592	0.624	0.627	0.538
NCI-H2170	0.468	0.418	0.425	0.365	0.353	0.871	0.937	0.779	0.864	1.01	0.622	0.57	0.373	0.542	0.591	0.451	0.476	0.482	0.466	0.512
NCI-H2342	0.538	0.785	0.552	0.633	0.545	0.401	0.69	0.624	0.535	0.415	0.291	0.386	0.308	0.316	0.311	0.703	0.801	0.721	0.738	0.717
NCI-H2347	0.449	0.604	0.596	–	0.318	0.748	0.889	0.668	0.378	0.444	0.3	0.283	0.321	–	0.296	0.689	0.648	0.657	0.694	0.643
NCI-H2405	0.335	0.46	0.484	0.39	0.418	0.687	0.918	0.769	0.68	0.655	0.171	0.232	0.215	0.212	0.215	0.737	0.777	0.734	0.767	0.758
NCI-H3122	0.45	0.423	0.374	0.333	0.324	1.04	1.05	1.03	0.941	1.03	0.714	0.941	0.836	0.78	0.83	0.394	0.449	0.417	0.508	0.457
